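How tested: cells in 96-well plates exposed to compound for 48 hours at five concentrations. GI50: concentration for 50% inhibition of growth. TGI: concentration producing complete growth inhibition.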 Where a SMILES comes first, the peptide text is derived from it.
Legend:
Assay in all cases: NCI tumour cell line growth inhibition, 48 h
LOX IMVI melanoma = test system: LOX IMVI melanoma
SK-MEL-28 melanoma = test system: SK-MEL-28 melanoma
OVCAR-5 ovarian = test system: OVCAR-5 ovarian
HS 578T breast = test system: HS 578T breast
A498 renal = test system: A498 renal
PC-3 prostate = test system: PC-3 prostate
TK-10 renal = test system: TK-10 renal
UACC-62 melanoma = test system: UACC-62 melanoma
K-562 leukemia = test system: K-562 leukemia
MDA-N = test system: MDA-N

Row | SMILES | GI50 (LOX IMVI melanoma) [µM] | TGI (LOX IMVI melanoma) [µM] | GI50 (SK-MEL-28 melanoma) [µM] | TGI (SK-MEL-28 melanoma) [µM] | GI50 (OVCAR-5 ovarian) [µM] | TGI (OVCAR-5 ovarian) [µM] | GI50 (HS 578T breast) [µM] | TGI (HS 578T breast) [µM] | GI50 (A498 renal) [µM] | TGI (A498 renal) [µM] | GI50 (PC-3 prostate) [µM] | TGI (PC-3 prostate) [µM] | GI50 (TK-10 renal) [µM] | TGI (TK-10 renal) [µM] | GI50 (UACC-62 melanoma) [µM] | TGI (UACC-62 melanoma) [µM] | GI50 (K-562 leukemia) [µM] | TGI (K-562 leukemia) [µM] | TGI (MDA-N) [µM]
1 | O=C(N/N=C\c1ccc(N(CCCl)CCCl)cc1)c1cccnc1 | 21.3 | > 100 | > 100 | > 100 | > 100 | > 100 | 65.5 | > 100 | 42.2 | > 100 | 65.4 | > 100 | 33.4 | > 100 | 9.1 | > 100 | 32.2 | > 100 | 
2 | C/C=C(\C)C(=O)OC1C2C(C)=CC(=O)C(O)C2(C)C2C3(O)OCC24C1OC(=O)C(OC(C)=O)C4C(C)C3O (stereo unspecified) |  | 0.375 |  | 0.0397 |  | 1.53 |  |  |  | 0.147 |  |  |  |  |  | 0.0555 |  | 0.375 | 
3 | CCOC(=O)c1ccc(Nc2nc3ccccc3n3cccc23)cc1 |  | > 100 |  | > 100 |  | > 100 |  | > 100 |  | > 100 |  | > 100 |  | > 100 |  | > 100 |  | > 100 | > 100
4 | CC(C)(C)c1ccc(NS(=O)(=O)c2ccc(N)cc2)cc1 |  | 33.1 |  | 63.7 |  | 84.3 |  | 59.3 |  | 46.4 |  | 85.7 |  | > 100 |  | 30.3 |  | 41.7 | 54.7
5 | COc1cc2c(c(OC)c1OC)-c1ccc(OC)c(=O)cc1C(NC(=O)CCCCCNc1ccc(N=[N+]=[N-])cc1[N+](=O)[O-])CC2 (stereo unspecified) |  | 9.55 |  | 25 |  | 31.4 |  | 4.67 |  |  |  | < 0.01 |  | 57.8 |  | < 0.01 |  |  | < 0.01
6 | CC(C)(C)OC(=O)NCC(c1c[nH]c2cc(Br)ccc12)c1c[nH]c2cc(Br)ccc12 |  | 32.2 |  | 83.4 |  | 31.4 |  | 46.4 |  |  |  | 31.1 |  | 35.9 |  | 30.1 |  | > 100 | 34.4
7 | N#C[S-].[Ce+3].c1ccc(-c2ccccn2)nc1.c1ccc(-c2ccccn2)nc1.c1ccc(-c2ccccn2)nc1 | 4.2 | 63.7 | 15.3 | > 100 | 6.15 | 42.9 |  |  |  |  |  |  | 11 | 97.6 | 20.6 | 55.2 |  |  | 
8 | COC(Cc1cc(C(O)(c2ccc(C(C)(C)C)cc2)c2cc(CC(OC)(c3cc(C(OC)(c4ccc(C(C)(C)C)cc4)c4ccc(C(C)(C)C)cc4)c(C)cc3C)c3cc(C(OC)(c4ccc(C(C)(C)C)cc4)c4ccc(C(C)(C)C)cc4)c(C)cc3C)c(C)cc2C)c(C)cc1C)(c1cc(C(OC)(c2ccc(C(C)(C)C)cc2)c2ccc(C(C)(C)C)cc2)c(C)cc1C)c1cc(C(OC)(c2ccc(C(C)(C)C)cc2)c2ccc(C(C)(C)C)cc2)c(C)cc1C |  | > 75 |  | > 75 |  | > 75 |  | > 75 |  | > 75 |  | > 75 |  | > 75 |  | > 75 |  | > 75 | > 75
9 | O=C1NCN(c2ccccc2)C12CCN(CCCN1CCN(CCOC(c3ccccc3)c3ccccc3)CC1)CC2 |  | 6.18 |  | 2.42 |  | 10.1 |  | 7.97 |  | 6.55 |  | 7.69 |  | 7.15 |  | 7.69 |  | 1.09 | 2.12
10 | CC(=O)NC(CS)C(=O)NC(CO)C(=O)NC(CO)C(=O)NC(Cc1c[nH]c2ccccc12)C(=O)N1CCCC1C(=O)NC(CO)C(=O)NC(Cc1c[nH]c2ccccc12)C(=O)NC(Cc1c[nH]cn1)C(=O)NC(CO)C(=O)NC(Cc1c[nH]c2ccccc12)C(=O)NCC(=O)NCC(=O)NC(C)C(=O)NC(CCC(N)=O)C(=O)NC(CCCCN)C(=O)NC(C)C(=O)NC(CCCNC(=N)N)C(=O)NC(CCCCN)C(N)=O (stereo unspecified) (Ac-CSSWPSWHSWGGAQKARK-NH2; configuration not given here) |  | > 50 |  | 20.9 |  | > 50 |  | > 50 |  | > 50 |  | > 50 |  | > 50 |  | 24 |  | 28.5 | > 50
11 | COc1nc2ccc(Cl)c(C(O)c3ccccc3)c2nc1OC (stereo unspecified) |  | 36.5 |  | > 100 |  | > 100 |  | 38.9 |  | 37.1 |  | > 100 |  | > 100 |  | 96.3 |  | > 100 | 54.8

— PubChem BioAssay (NCI)
